Experimental findings from US20100184683A1, “ANTIBACTERIAL AND ANTIFUNGAL PEPTIDES” (C3 JIAN, INC., priority 2009, published 2010) are described below.

Converted amounts (≈) assume the structure as drawn. Peptide text beside a SMILES is read from it.

For one experiment, the system named is Candida albicans. Put plainly: Binding of targeting peptides to Candida albicans. To be noted: tested at 3.13, 6.25, 12.5 and 25.0 μM in 1× PBS or HEPES/NaCl/MgCl2/0.1% CTAB. Here is the method:
The peptides in Table 6 were tested for binding efficiency at 3.13, 6.25, 12.5 and 25.0 μM concentrations in 1× phosphate-buffered saline or 20 mM HEPES (4-(2-hydroxyethyl)-1-piperazineethanesulfonic acid), 150 mM sodium chloride, 1 mM magnesium chloride and 0.1% CTAB.
For the compound “HSSHL (HARAAVGVAELPRGAAVEVELIAAVRP; Antimicrobial peptide and/or targeting peptide) [PF-060]”, the “Target(s): form of Candida albicans bound” value was “hyphae”. Same read-out and setting: for MPKARPVNHNKKKSKITIKSNFTLFYMFNP [PF-634] the value was “hyphae”. On the same count and under the same terms, for EVYSSPTNNVAITVQNN [PF-178] the value was “hyphae”; for MIHLTKQNTMEALHFIKQFYDMFFILNFNV [PF-040], “hyphae”. Still for that read-out and setting: to RFFNFEIKKSTKVDYVFAHVDLSDV [PF-051] belongs “hyphae”; to VYRHLRFIDGKLVEIRLERK [1T-36], “hyphae”. With KLRSASKKSLQEKSCGIMPEKPAG [PF-206], the “Target(s): form of Candida albicans bound” value is listed as “hyphae”. “EILNNNQVIKELTMKYKTQFESNLGGWTARARR [PF-580]”: the “Target(s): form of Candida albicans bound” value is on record as “hyphae”.

Take RLARGRPTNLCGRRG [PF-170]: the “Target(s): form of Candida albicans bound” value is given as “yeast cells”.

Turning to “LVRLA (NILFGIIGFVVAMTAAVIVTAISIAK; Antimicrobial peptide and/or targeting peptide) [PF-636]”, the “Target(s): form of Candida albicans bound” value is recorded as “hyphae”. NRQAQGERAHGEQQG [1T-70]: the “Target(s): form of Candida albicans bound” value is on record as “yeast cells”.

On to GVGIGFIMMGVVGYAVKLVHIPIRYLIV [PF-770], for which the “Target(s): form of Candida albicans bound” value is recorded as “hyphae”. Turning to “DLRKAK (VVRRFQGM; Antimicrobial peptide and/or targeting peptide) [PF-024]”, the “Target(s): form of Candida albicans bound” value was “hyphae”. Still for that read-out and setting: to “SKFELVNYASGCSCGADCKCASETECKCASKK [PF-761]” belongs “hyphae”; to VVRRFQGM [PF-141], “hyphae”. As for HARAAVGVAELPRGAAVEVELIAAVRP [1T-65], the “Target(s): form of Candida albicans bound” value was “hyphae”. As for NILFGIIGFVVAMTAAVIVTAISIAK [PF-543], the “Target(s): form of Candida albicans bound” value was “hyphae”. AIEGVIKKGACFKLLRHEMF [PF-167]: the “Target(s): form of Candida albicans bound” value is listed as “yeast cells”. Still for that read-out and setting: to GGTKEIVYQRG [1T-68] belongs “yeast cells”; to RLTSNQFLTRITPFVFAQH [PF-176], “yeast cells”.

The test system of another experiment is S. pneumoniae.
Test: not given
The class given is cell-based, Streptococcus pneumoniae.
Settings: not given
Here is the method: (§1) In certain embodiments the MIC assays are performed as described herein in the Examples. For each organism, the media and growth conditions utilized is detailed in Table 8.
(§2) In certain embodiments the MIC assays are performed as follows: For each organism, the media and growth conditions utilized is detailed in Table 8.
Broadly, the MIC is the least concentration at which growth counts as inhibited. The low end stands for greater potency, the high end for weaker potency. In turn, `CC[C@H](C)[C@H](NC(=O)[C@H](CCCNC(=N)N)NC(=O)[C@H](CO)NC(=O)[C@H](CC(C)C)NC(=O)[C@H](C)NC(=O)[C@H](C)NC(=O)[C@H](CC(C)C)NC(=O)[C@@H](NC(=O)[C@@H]1CCCN1C(=O)[C@H](CCCCN)NC(=O)[C@H](Cc1c[nH]cn1)NC(=O)[C@H](Cc1ccc(O)cc1)NC(=O)[C@H](CS)NC(=O)[C@@H](NC(=O)[C@H](CCCNC(=N)N)NC(=O)[C@@H]1CCCN1C(=O)[C@H](C)NC(=O)[C@H](CC(=O)O)NC(=O)[C@@H]1CCCN1)[C@@H](C)O)[C@@H](C)CC)C(=O)N[C@H](C(=O)N[C@H](C(=O)N[C@H](C(=O)N[C@@H](CC(=O)O)C(=O)N[C@@H](CCCNC(=N)N)C(=O)O)[C@@H](C)O)C(C)C)C(C)C` [PF-524] (H-PDAPRTCYHKPILAALSRIVVTDR-OH; N-terminus and C-terminus assumed) returned an MIC of 50 µM (≈ 135 µg/mL).

As for `CC(C)C[C@H](NC(=O)[C@H](CC(C)C)NC(=O)[C@H](Cc1c[nH]cn1)NC(=O)[C@H](CC(N)=O)NC(=O)[C@H](CCCCN)NC(=O)[C@H](CC(C)C)NC(=O)[C@H](CO)NC(=O)[C@H](CCCNC(=N)N)NC(=O)[C@H](CO)NC(=O)[C@H](C)NC(=O)[C@H](CCC(N)=O)NC(=O)[C@H](CCCCN)NC(=O)[C@H](CO)NC(=O)[C@H](C)NC(=O)[C@H](CCC(N)=O)NC(=O)[C@H](CCCCN)NC(=O)[C@H](CO)NC(=O)[C@H](C)NC(=O)[C@H](CCC(N)=O)NC(=O)[C@H](CCCCN)NC(=O)[C@H](CO)NC(=O)[C@H](C)NC(=O)[C@H](CCC(N)=O)NC(=O)[C@H](CCCCN)NC(=O)[C@H](CO)NC(=O)[C@H](C)NC(=O)[C@H](CCC(N)=O)NC(=O)[C@H](CCCCN)NC(=O)[C@H](CO)NC(=O)[C@H](C)N)C(=O)O` [PF-523] (H-ASKQASKQASKQASKQASKQASRSLKNHLL-OH; N-terminus and C-terminus assumed), the MIC came out at 50 µM (≈ 161 µg/mL). Consider `CC[C@H](C)[C@H](NC(=O)[C@@H](NC(=O)[C@@H](NC(=O)[C@@H]1CCCN1C(=O)[C@@H](NC(=O)[C@H](CCC(=O)O)NC(=O)[C@H](CC(=O)O)NC(=O)[C@H](CC(=O)O)NC(=O)[C@H](CC(=O)O)NC(=O)[C@H](CCC(N)=O)NC(=O)[C@H](Cc1ccccc1)NC(=O)[C@H](CC(=O)O)NC(=O)[C@H](CCC(=O)O)NC(=O)[C@@H](NC(=O)[C@H](CCC(=O)O)NC(=O)[C@H](CCC(=O)O)NC(=O)CNC(=O)[C@@H](NC(=O)[C@H](Cc1ccccc1)NC(=O)[C@@H]1CCCN1C(=O)[C@H](CCCCN)NC(=O)[C@H](CCC(N)=O)NC(=O)[C@@H](N)Cc1ccccc1)[C@@H](C)O)C(C)C)[C@@H](C)CC)[C@@H](C)O)[C@@H](C)CC)C(=O)O` [PF-437] (H-FQKPFTGEEVEDFQDDDEIPTII-OH; N-terminus and C-terminus assumed), for which the MIC came out at 50 µM (≈ 136 µg/mL). With `CC(C)C[C@H](NC(=O)[C@H](CCCCN)NC(=O)CNC(=O)[C@@H](N)CS)C(=O)N[C@@H](CC(C)C)C(=O)N[C@@H](CCC(=O)O)C(=O)N[C@@H](CCC(N)=O)C(=O)N[C@@H](CCCCN)C(=O)N[C@@H](CC(N)=O)C(=O)N[C@@H](Cc1ccccc1)C(=O)N[C@@H](Cc1ccccc1)C(=O)N[C@@H](CC(C)C)C(=O)N[C@@H](CCCCN)C(=O)N[C@H](C(=O)N[C@@H](CCCNC(=N)N)C(=O)O)[C@@H](C)O` [PF-521] (H-CGKLLEQKNFFLKTR-OH; N-terminus and C-terminus assumed), the MIC came to 50 µM (≈ 91.3 µg/mL).

Staying with this experiment, now noted: S. pneumoniae; TSB supplemented with 5% yeast extract, 37° C., 10% CO2; inoculum 10^6 CFU/ml; 18-24 h or 48 h.
As for “LGLTAGVAYAAQPTNQPTNQPTNQPTNQPTNQPTNQPRW [PF-520]”, the MIC is 50 µM.

Compound `CC[C@H](C)[C@H](NC(=O)[C@H](CC(C)C)NC(=O)[C@@H]1CCCN1C(=O)[C@@H]1CCCN1C(=O)[C@H](CCCCN)NC(=O)[C@@H](NC(=O)[C@H](Cc1ccc(O)cc1)NC(=O)[C@H](CC(C)C)NC(=O)[C@H](CO)NC(=O)[C@H](CCC(N)=O)NC(=O)[C@H](CCSC)NC(=O)[C@@H](N)C(C)C)C(C)C)C(=O)N[C@@H](CC(C)C)C(=O)N[C@H](C(=O)N[C@H](C(=O)N[C@@H](CCCCN)C(=O)N[C@@H](CC(C)C)C(=O)N[C@@H](C)C(=O)N[C@@H](CCC(N)=O)C(=O)N[C@@H](CCC(N)=O)C(=O)N[C@@H](CC(N)=O)C(=O)O)[C@@H](C)O)C(C)C` [PF-511] (H-VMQSLYVKPPLILVTKLAQQN-OH; N-terminus and C-terminus assumed) came in with an MIC of 50 µM (≈ 119 µg/mL). Same read-out and setting: for `CC[C@H](C)[C@H](NC(=O)[C@H](CCC(=O)O)NC(=O)[C@@H]1CCCN1C(=O)[C@H](CCSC)NC(=O)[C@H](Cc1ccccc1)NC(=O)[C@@H](N)CO)C(=O)N[C@@H](CCC(N)=O)C(=O)N[C@@H](CCCCN)C(=O)N[C@@H](CC(N)=O)C(=O)N[C@H](C(=O)N[C@H](C(=O)N1CCC[C@H]1C(=O)N[C@H](C(=O)N[C@@H](CCC(N)=O)C(=O)N[C@@H](CCSC)C(=O)N[C@@H](CCCCN)C(=O)O)[C@@H](C)O)[C@@H](C)CC)[C@@H](C)O` [PF-512] (H-SFMPEIQKNTIPTQMK-OH; N-terminus and C-terminus assumed) the value was 50 µM (≈ 94.7 µg/mL).

Another experiment concerns B. subtilis.
Test: not given
Settings: not given
The class given is cell-based, Bacillus subtilis. Here is the method: as §1, §2
In turn, `CC[C@H](C)[C@H](NC(=O)[C@H](CCCNC(=N)N)NC(=O)[C@H](CCCCN)NC(=O)[C@H](CCCCN)NC(=O)[C@H](CCSC)NC(=O)[C@H](CO)NC(=O)[C@H](CC(C)C)NC(=O)[C@H](CC(C)C)NC(=O)[C@H](CCCCN)NC(=O)[C@H](CCCNC(=N)N)NC(=O)[C@@H](NC(=O)[C@@H](NC(=O)[C@@H](NC(=O)[C@H](CC(C)C)NC(=O)[C@@H](NC(=O)[C@H](Cc1ccc(O)cc1)NC(=O)[C@H](CC(C)C)NC(=O)[C@H](Cc1ccccc1)NC(=O)[C@H](CO)NC(=O)[C@H](Cc1ccc(O)cc1)NC(=O)[C@@H](N)C(C)C)C(C)C)C(C)C)[C@@H](C)CC)C(C)C)C(=O)N[C@@H](CCC(=O)O)C(=O)N[C@@H](CCCNC(=N)N)C(=O)N[C@@H](CC(C)C)C(=O)O` [PF-499] (H-VYSFLYVLVIVRKLLSMKKRIERL-OH; N-terminus and C-terminus assumed) yielded an MIC of 50 µM (≈ 148 µg/mL).

Compound `CC[C@H](C)[C@H](NC(=O)CN)C(=O)N[C@H](C(=O)N[C@@H](CC(C)C)C(=O)N[C@H](C(=O)NCC(=O)N[C@@H](CC(C)C)C(=O)N[C@@H](CCCCN)C(=O)N[C@@H](CC(C)C)C(=O)N[C@H](C(=O)N1CCC[C@H]1C(=O)N[C@@H](CC(C)C)C(=O)N[C@@H](CC(C)C)C(=O)N[C@@H](C)C(=O)N[C@@H](CC(N)=O)C(=O)N[C@H](C(=O)N[C@@H](CC(C)C)C(=O)N[C@@H](CCCNC(=N)N)C(=O)O)C(C)C)[C@@H](C)CC)[C@@H](C)CC)C(C)C` [PF-322] (H-GIVLIGLKLIPLLANVLR-OH; N-terminus and C-terminus assumed) came in with an MIC of 50 µM (≈ 95.8 µg/mL). That is a double-digit micromolar value. `CC[C@H](C)[C@H](NC(=O)[C@H](Cc1ccccc1)NC(=O)[C@@H](NC(=O)[C@H](Cc1ccccc1)NC(=O)[C@H](CC(C)C)NC(=O)[C@H](CC(=O)O)NC(=O)[C@@H](NC(=O)[C@H](CS)NC(=O)[C@@H](NC(=O)[C@H](CCCNC(=N)N)NC(=O)[C@H](CC(C)C)NC(=O)[C@@H](NC(=O)[C@@H](N)CC(C)C)C(C)C)[C@@H](C)CC)[C@@H](C)O)[C@@H](C)O)C(=O)N[C@@H](CCCCN)C(=O)N[C@@H](Cc1c[nH]c2ccccc12)C(=O)N[C@H](C(=O)N[C@H](C(=O)N[C@@H](CCCCN)C(=O)N[C@@H](CCC(N)=O)C(=O)N[C@@H](CCCNC(=N)N)C(=O)N[C@@H](CCCCN)C(=O)N[C@@H](CO)C(=O)O)[C@@H](C)CC)[C@@H](C)O` [PF-497] (H-LVLRICTDLFTFIKWTIKQRKS-OH; N-terminus and C-terminus assumed) displayed an MIC of 50 µM (≈ 136 µg/mL).
